Measured values reported in patent US6967196B1, “Sulfonamide compounds and uses thereof” (Bristol-Myers Squibb Company, priority 1999, dated 2005).
Where a name gives a salt, the structure may show the parent alone. Read-outs that look alike come from different tables or passages of the source. Values belong to the molecule of their own block, whether it stands above or below them.

Test system: amyloid β production in transfected H4 (human neuroglioma) cells stably expressing APP constructs
Experiment: In vitro cell-based assay of inhibitors of amyloid β production (ELISA)
Settings: amyloid β in medium by ELISA
Outline: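 Cells expressing wild-type or variant APP were plated ≥6 h before medium was replaced with compound-containing medium (initial screen 10-100 μM) and incubated ~16 h. Secreted Aβ in medium was quantified by sandwich ELISA (C-terminal-specific mouse monoclonal capture, N-terminal rabbit polyclonal detection) against an Aβ standard curve.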

[1] = transfected H4 cells stably expressing APP, approx. 16 h incubation, read-out: ACTIVITY (IC50, inhibition of amyloid β production)
[2] = Homo sapiens, 16 h, transfected H4 cells stably expressing APP, approximately 16 hours incubation, read-out: ACTIVITY (IC50, inhibition of amyloid β production)
[3] = Homo sapiens, 16 h, transfected H4 cells expressing APP, approximately 16 hours incubation, read-out: ACTIVITY (IC50, inhibition of amyloid β production)
[4] = transfected H4 cells stably expressing APP, approximately 16 hours incubation, read-out: ACTIVITY (IC50, inhibition of amyloid β production)

Molecule: COC(=O)[C@H](CC(C)C)NC(=O)CCC[C@@H](C)N(c1cc(Cl)ccc1F)S(=O)(=O)c1ccc(Cl)cc1 [Example 541]
IC50 [1]: 100 to 500 nM

IC50 [1]: 100 to 500 nM
Molecule: N-{3-[2-(1-{[(4-chlorophenyl)sulfonyl]-2,5-difluoroanilino}ethyl)phenoxy]propyl}-4-methylbenzamide [Example 707]

Molecule: O=S(=O)(c1ccc(Cl)cc1)N(Cc1ccccc1OCCCN1CCC1)c1ccccc1 [Example 292, N-{2-[3-(1-azetidinyl)propoxy]benzyl}-4-chloro-N-phenylbenzenesulfonamide Hydrochloride]
IC50 (transfected H4 cells stably expressing APP, approximately 16 hours incubation, Table B, read-out: ACTIVITY (IC50, inhibition of amyloid β production)): 25 to 50 nM

IC50 [1]: 100 to 500 nM
Molecule: N-{3-[2-(1-{[(4-chlorophenyl)sulfonyl]-2,5-difluoroanilino}ethyl)phenoxy]propyl}-2,2-diphenylacetamide [Example 784]

Molecule: O=S1(=O)c2cccc3cccc(c23)N1Cc1ccccc1OCCCN1CCCCC1 [Example 1024, 2-{2-[3-(1-piperidinyl)propoxy]benzyl}-2H-naphtho[1,8-cd]isothiazol 1,1-dioxide hydrochloride]
IC50 [2]: > 500 nM

IC50 [3]: 100 to 500 nM
Molecule: C[C@H](C(=O)NC1CCCC1)C(c1cc(Cl)ccc1F)S(=O)(=O)c1ccc(Cl)cc1 (some centres unmarked) [Example 1307]

IC50 (Homo sapiens, 16 h, Table B, transfected H4 cells stably expressing APP, approximately 16 hours incubation, read-out: ACTIVITY (inhibitory concentration IC50, inhibition of amyloid β production)): 25 to 50 nM
Molecule: CCN(CC)C(=O)CCCc1cc(F)ccc1[C@@H](C)N(c1cc(F)ccc1F)S(=O)(=O)c1ccc(Cl)cc1 [Example 223, 4-[2-((1R)-1-{[(4-chlorophenyl)sulfonyl]-2,5-difluoroanilino}ethyl)-5-fluorophenyl]-N,N-diethylbutanamide]

IC50 [3]: > 500 nM
Molecule: CCN(CC)CCCC(C)NC(=O)[C@@H](C)N(c1cc(Cl)ccc1F)S(=O)(=O)c1ccc(Cl)cc1 (some centres unmarked) [Example 1312]

IC50 [2]: > 500 nM
Molecule: O=S(=O)(c1ccc(Cl)cc1)n1c(-c2ccccc2OCCCN2CCCCC2)c(Cl)c2ccccc21 [Example 1043, 3-chloro-1-[(4-chlorophenyl)sulfonyl]-2-{2-[3-(1-piperidinyl)propoxy]phenyl}-1H-indole trifluoroacetate]

Molecule: C[C@@H]1CCC[C@H](C)N1CCCOc1ccccc1CN(c1ccccc1)S(=O)(=O)c1ccc(Cl)cc1 [Example 812, 4-chloro-N-(2-{3-(2R, 6S)-2,6-dimethylpiperidinyl]propoxy}benzyl)-N-phenylbenzenesulfonamide hydrochloride]
IC50 [4]: 100 to 500 nM

IC50 [2]: > 500 nM
Molecule: O=S(=O)(c1ccc(Cl)cc1)N(Cc1ccccc1OCCCN1CCCCC1)C1Cc2ccccc2C1 [Example 1020, 4-chloro-N-(2,3-dihydro-1H-inden-2-yl)-N-{2-[3-(1-piperidinyl)propoxy]benzyl}benzenesulfonamide hydrochloride]

IC50 [4]: 100 to 500 nM
Molecule: 2-((1R)-1-{[(4-chlorophenyl)sulfonyl]-2,5-difluoroanilino}ethyl)benzyl benzyl[2-(dimethylamino)ethyl]carbamate [Example 838]

IC50 [3]: ≤ 25 nM
Molecule: CC(CCOC(=O)NCCCn1ccnc1)N(c1cc(Cl)ccc1CO)S(=O)(=O)c1ccc(Cl)cc1 (centres unmarked) [Example 1289]

IC50 [1]: 100 to 500 nM
Molecule: N-{3-[2-(1-{[(4-chlorophenyl)sulfonyl]-2,5-difluoroanilino}ethyl)phenoxy]propyl}-2,5-difluoro-N-methylbenzamide [Example 727]

IC50 [2]: > 10000 nM
Molecule: O=S(=O)(c1ccc(Cl)cc1)N(Cc1ccccc1O)c1ccccc1 [Example 1081, 4-chloro-N-(2-hydroxybenzyl)-N-phenylbenzenesulfonamide]

IC50 [1]: 100 to 500 nM
Molecule: N-{2-[2-(1-{[(4-chlorophenyl)sulfonyl]-2,5-difluoroanilino}ethyl)phenoxy]ethyl}-N-ethyl-1-adamantanecarboxamide [Example 769]

IC50 [3]: ≤ 25 nM
Molecule: CCCNC(=O)OC[C@@H](C)N(c1cc(Cl)ccc1CO)S(=O)(=O)c1ccc(Cl)cc1 [Example 1281]
